Measurements taken from patent publication US20110081315A1, “NOVEL MACROCYCLIC INHIBITORS OF HEPATITIS C VIRUS REPLICATION” (INTERMUNE, INC., priority 2009, published 2011).
Where two headings read alike, the source gives them in different places.

How the values were obtained:
[1] = target: NS3/NS4 complexes (Hepatitis C virus genotype 1a, UniProt P27958); assay: NS3/NS4 inhibition assay (IC50); assay type: biochemical; details: NS3/NS4 activity; 23° C., 25 μM NS4A peptide
Outline: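 Read-outs are IC50 for inhibition of the NS3/NS4 complex and EC50 in an HCV replicon system. Biochemical runs use 23° C. and a 50 mM Tris-HCl (pH 7.5) buffer with 15% glycerol, 10 mM DTT, 0.6 mM LDAO and 25 μM NS4A peptide.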

[2] = test system: hepatitis C replicon; assay: hepatitis C replicon EC50 assay; assay type: cell-based; details: Hepatitis C virus
Outline: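 Inhibitory concentrations against the NS3/NS4 complex are determined at 23° C. in pH 7.5 buffer (50 mM Tris-HCl) containing 25 μM NS4A peptide, 0.6 mM lauryldimethylamine oxide, 10 mM dithiothreitol and 15% glycerol. EC50 values derive from the hepatitis C replicon assay.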

[3] = hepatitis C replicon, read-out: EC50

Sequence of NS3/NS4 complexes (P27958 1027-1657, one chain of several): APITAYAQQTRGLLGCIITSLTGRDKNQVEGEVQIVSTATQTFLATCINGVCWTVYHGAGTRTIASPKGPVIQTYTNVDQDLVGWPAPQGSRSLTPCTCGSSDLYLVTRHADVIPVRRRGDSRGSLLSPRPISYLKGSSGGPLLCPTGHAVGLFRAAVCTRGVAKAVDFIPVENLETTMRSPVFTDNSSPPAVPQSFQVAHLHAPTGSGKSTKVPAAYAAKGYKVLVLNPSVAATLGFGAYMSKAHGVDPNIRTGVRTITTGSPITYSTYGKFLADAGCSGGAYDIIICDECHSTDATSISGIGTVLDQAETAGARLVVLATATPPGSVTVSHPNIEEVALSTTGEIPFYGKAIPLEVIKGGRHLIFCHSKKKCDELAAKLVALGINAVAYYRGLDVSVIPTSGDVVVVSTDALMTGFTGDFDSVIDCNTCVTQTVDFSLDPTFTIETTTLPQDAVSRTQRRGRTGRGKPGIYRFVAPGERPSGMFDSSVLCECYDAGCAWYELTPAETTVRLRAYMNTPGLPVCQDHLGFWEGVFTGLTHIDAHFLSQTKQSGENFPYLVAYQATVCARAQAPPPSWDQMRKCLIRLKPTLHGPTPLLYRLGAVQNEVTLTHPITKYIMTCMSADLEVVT

`CC(C)n1c(O[C@@H]2C[C@H]3C(=O)N[C@]4(C(=O)NS(=O)(=O)N(C)C)C[C@H]4/C=C\CCCCC[C@H](NC(=O)OC(C)(C)C)C(=O)N3C2)nc2c(C(N)=O)cccc21` [Compound 277] was tested, and the IC50 [1] was < 10 nM and the EC50 [2, 3] was < 10 nM.
With `CC(C)n1c(O[C@@H]2C[C@H]3C(=O)N[C@]4(C(=O)NS(=O)(=O)C5(C)CC5)C[C@H]4/C=C\CCCCC[C@H](Nc4ccccc4)C(=O)N3C2)nc2c(C(=O)O)cccc21` [Compound 267] the IC50 [1] was < 10 nM and the EC50 [2, 3] was > 100 nM.
For `CC(C)c1cccc2c1nc(O[C@@H]1C[C@H]3C(=O)N[C@]4(C(=O)NS(=O)(=O)C5(C)CC5)C[C@H]4/C=C\CCCCC[C@H](Nc4ccccc4)C(=O)N3C1)n2C(C)C` [Compound 201], the IC50 [1] was < 10 nM and the EC50 [2, 3] was 10 to 100 nM.
In the case of `CN(C)S(=O)(=O)NC(=O)[C@@]12C[C@H]1/C=C\CCCCC[C@H](NC(=O)OC(C)(C)C)C(=O)N1C[C@H](Oc3nc4ccccc4nc3C(C)(C)C)C[C@H]1C(=O)N2` [Compound 304], the IC50 [1] is reported as < 10 nM and the EC50 [2, 3] is reported as 10 to 100 nM.
In the case of `CC(C)n1c(O[C@@H]2C[C@H]3C(=O)N[C@]4(C(=O)NS(=O)(=O)N(C)C)C[C@H]4/C=C\CCCCC[C@H](NC(=O)OC(C)(C)C)C(=O)N3C2)nc2c(C(=O)NCc3nccs3)cccc21` [Compound 1222], the IC50 [1] is reported as < 10 nM and the EC50 [2, 3] is reported as < 10 nM.
`CC(C)c1csc(-c2cccc3c2nc(O[C@@H]2C[C@H]4C(=O)N[C@]5(C(=O)NS(=O)(=O)N(C)C)C[C@H]5/C=C\CCCCC[C@H](NC(=O)OC(C)(C)C)C(=O)N4C2)n3C(C)C)n1` [Compound 1433] was tested, and the IC50 [1] was < 10 nM and the EC50 [2, 3] was < 10 nM.
`COc1ccc2c(O[C@@H]3C[C@H]4C(=O)N[C@]5(C(=O)NS(=O)(=O)C6(C)CC6)C[C@H]5/C=C\CCCCC[C@H](Nc5cccc(-c6ncco6)c5)C(=O)N4C3)cc(-c3nc(C(C)C)cs3)nc2c1C` [Compound 128] was tested, and the IC50 [1] was < 10 nM and the EC50 [2, 3] was < 10 nM.
In the case of `CC(C)c1csc(-c2cccc3c2nc(O[C@@H]2C[C@H]4C(=O)N[C@]5(C(=O)NS(=O)(=O)C6(C)CC6)C[C@H]5/C=C\CCCCC[C@H](NC(=O)OC(C)(C)C)C(=O)N4C2)n3C(C)C)n1` [Compound 1403], the IC50 [1] is reported as < 10 nM and the EC50 [2, 3] is reported as < 10 nM.
With `CC(C)NC(=O)Nc1cccc2c1nc(O[C@@H]1C[C@H]3C(=O)N[C@]4(C(=O)NS(=O)(=O)N(C)C)C[C@H]4/C=C\CCCCC[C@H](NC(=O)OC(C)(C)C)C(=O)N3C1)n2C(C)C` [Compound 1421] the IC50 [1] was < 10 nM and the EC50 [2, 3] was < 10 nM.
With `CCOC(=O)Nc1cccc2c1nc(O[C@@H]1C[C@H]3C(=O)N[C@]4(C(=O)NS(=O)(=O)N(C)C)C[C@H]4/C=C\CCCCC[C@H](NC(=O)OC(C)(C)C)C(=O)N3C1)n2C(C)C` [Compound 1427] the IC50 [1] was < 10 nM and the EC50 [2, 3] was < 10 nM.
With `COc1ccc2c(O[C@@H]3C[C@H]4C(=O)N[C@]5(C(=O)NS(=O)(=O)C6(C)CC6)C[C@H]5/C=C\CCCCC[C@H](Nc5ccc(F)c(OC(F)(F)F)c5)C(=O)N4C3)cc(-c3nc(C(C)C)cs3)nc2c1C` (single isomer, unassigned) [Compound 601] the IC50 [1] was < 10 nM and the EC50 [2, 3] was < 10 nM.
With `COc1ccc2c(O[C@@H]3C[C@H]4C(=O)N[C@]5(C(=O)NS(=O)(=O)C6(C)CC6)C[C@H]5/C=C\CCCCC[C@H](Nc5cccc(C(=O)N6CCN(c7ncccn7)CC6)c5)C(=O)N4C3)cc(-c3nc(C(C)C)cs3)nc2c1C` [Compound 125] the IC50 [1] was < 10 nM and the EC50 [2, 3] was < 10 nM.
With `CC(C)n1c(O[C@@H]2C[C@H]3C(=O)N[C@]4(C(=O)NS(=O)(=O)C5(C)CC5)C[C@H]4/C=C\CCCCC[C@H](NC(=O)OC(C)(C)C)C(=O)N3C2)nc2c(-c3csc(-c4cc(F)cc(F)c4)n3)cccc21` [Compound 1703] the IC50 [1] was < 10 nM and the EC50 [2, 3] was 10 to 100 nM.
For `CC(C)n1c(O[C@@H]2C[C@H]3C(=O)N[C@]4(C(=O)NS(=O)(=O)C5(C)CC5)C[C@H]4/C=C\CCCCC[C@H](Nc4ccccc4)C(=O)N3C2)nc2c(-c3ccc(F)cc3)cccc21` [Compound 238], the IC50 [1] was < 10 nM and the EC50 [2, 3] was 10 to 100 nM.
With `CC(C)n1c(O[C@@H]2C[C@H]3C(=O)N[C@]4(C(=O)NS(=O)(=O)C5CC5)C[C@H]4/C=C\CCCCC[C@H](NC(=O)OC(C)(C)C)C(=O)N3C2)nc2c(Br)cccc21` [Compound 224] the IC50 [1] was < 10 nM and the EC50 [2, 3] was < 10 nM.
In the case of `CC(C)n1c(O[C@@H]2C[C@H]3C(=O)N[C@]4(C(=O)NS(=O)(=O)N(C)C)C[C@H]4/C=C\CCCCC[C@H](NC(=O)OC(C)(C)C)C(=O)N3C2)nc2c(-c3ccccc3F)cccc21` [Compound 261], the IC50 [1] is reported as < 10 nM and the EC50 [2, 3] is reported as 10 to 100 nM.
In the case of `CC(C)n1c(O[C@@H]2C[C@H]3C(=O)N[C@]4(C(=O)NS(=O)(=O)N(C)C)C[C@H]4/C=C\CCCCC[C@H](NC(=O)OC(C)(C)C)C(=O)N3C2)nc2cc(-c3ccccc3)ccc21` [Compound 262], the IC50 [1] is reported as < 10 nM and the EC50 [2, 3] is reported as 10 to 100 nM.
With `Cc1cccc(-c2csc(-c3cccc4c3nc(O[C@@H]3C[C@H]5C(=O)N[C@]6(C(=O)NS(=O)(=O)C7(C)CC7)C[C@H]6/C=C\CCCCC[C@H](NC(=O)OC(C)(C)C)C(=O)N5C3)n4C(C)C)n2)c1` [Compound 1713] the IC50 [1] was < 10 nM and the EC50 [2, 3] was 10 to 100 nM.
In the case of `CN(C)S(=O)(=O)NC(=O)[C@@]12C[C@H]1/C=C\CCCCC[C@H](NC(=O)OC(C)(C)C)C(=O)N1C[C@H](Oc3nc4ccccc4n3-c3ccccc3)C[C@H]1C(=O)N2` [Compound 207], the IC50 [1] is reported as < 10 nM and the EC50 [2, 3] is reported as < 10 nM.
With `CC1(S(=O)(=O)NC(=O)[C@@]23C[C@H]2/C=C\CCCCC[C@H](Nc2ccccc2)C(=O)N2C[C@H](n4nnc(-c5ccccc5)n4)C[C@H]2C(=O)N3)CC1` [Compound 802] the IC50 [1] was < 10 nM and the EC50 [2, 3] was > 100 nM.
With `CC(C)n1c(O[C@@H]2C[C@H]3C(=O)N[C@]4(C(=O)NS(=O)(=O)C5CC5)C[C@H]4/C=C\CCCCC[C@H](NC(=O)OC(C)(C)C)C(=O)N3C2)nc2c(-c3nccs3)cccc21` [Compound 211] the IC50 [1] was < 10 nM and the EC50 [2, 3] was < 10 nM.
For `CC(C)n1c(O[C@@H]2C[C@H]3C(=O)N[C@]4(C(=O)NS(=O)(=O)N(C)C)C[C@H]4/C=C\CCCCC[C@H](NC(=O)OC(C)(C)C)C(=O)N3C2)nc2c(-c3nc(C4CCC4)cs3)cccc21` [Compound 1766], the IC50 [1] was < 10 nM and the EC50 [2, 3] was < 10 nM.
`CC(C)n1c(O[C@@H]2C[C@H]3C(=O)N[C@]4(C(=O)NS(=O)(=O)N(C)C)C[C@H]4/C=C\CCCCC[C@H](NC(=O)OC(C)(C)C)C(=O)N3C2)nc2c(C(=O)NCCc3ccccc3)cccc21` [Compound 284] was tested, and the IC50 [1] was < 10 nM and the EC50 [2] was < 10 nM.
For `CN(C)S(=O)(=O)NC(=O)[C@@]12C[C@H]1/C=C\CCCCC[C@H](NC(=O)OC(C)(C)C)C(=O)N1C[C@H](Oc3nc4ccccc4nc3-c3ccc(F)cc3)C[C@H]1C(=O)N2` [Compound 308], the IC50 [1] was < 10 nM and the EC50 [2, 3] was 10 to 100 nM.
For `CC(C)n1c(O[C@@H]2C[C@H]3C(=O)N[C@]4(C(=O)O)C[C@H]4/C=C\CCCCC[C@H](Nc4ccc(F)cc4)C(=O)N3C2)nc2c(-c3nc(C4CCCC4)cs3)cccc21` [Compound 1762], the IC50 [1] was 10 to 100 nM and the EC50 [2, 3] was > 100 nM.
In the case of `CC(C)n1c(O[C@@H]2C[C@H]3C(=O)N[C@]4(C(=O)NS(=O)(=O)C5(C)CC5)C[C@H]4/C=C\CCCCC[C@H](NC(=O)OC(C)(C)C)C(=O)N3C2)nc2c(-c3nc(C4CC4)cs3)cccc21` [Compound 1777], the IC50 [1] is reported as < 10 nM and the EC50 [2, 3] is reported as < 10 nM.
`COc1ccc2c(O[C@@H]3C[C@H]4C(=O)N[C@]5(C(=O)NS(=O)(=O)C6(C)CC6)C[C@H]5/C=C\CCCCC[C@H](Nc5cccc(C(=O)N6CCOCC6Cc6ccccc6)c5)C(=O)N4C3)cc(-c3nc(C(C)C)cs3)nc2c1C` (stereo partly drawn) [Compound 122] was tested, and the IC50 [1] was < 10 nM and the EC50 [2, 3] was 10 to 100 nM.
